Tested on: rat RT2 glioma cells
Assay: MTT growth/toxicity assay of adenovirus-infected RT2 cells exposed to GCV or ACV
Type: cell-based
Conditions: 1-100 microM; for effect of prodrug on cell growth/toxicity (MTT): control AdCMV (empty vector)-infected RT2 cells, 5 days
Excerpt: FIG. 2. Mutant HSV-TK75 sensitizes rat RT2 glioma cells to GCV and ACV more efficiently than wild type HSV-TK. Rat RT2 cells were infected with AdCMV (empty vector), AdCMV-TK, or AdCMV-TK75. At 2 days postinfection, cells were trypsinized, serially diluted, seeded in microtiter plates, and exposed to various doses of ACV or GCV. After 5 days, the plates were processed for growth/toxicity by MTT assay. (Contessa et al., 1999). Values were normalized to values from cells that were infected but not treated with GCV or ACV.
RT2 cells (a rat glioma cell line derived from Fischer 344 rats (Wilfong et al. 1973) that form tumors with features typical of human glioblastoma (Mahaley et al, 1977) were cultured in Dulbecco's modified Eagle's medium with 10% fetal bovine serum supplemented with penicillin/strepto-mycin. (Brust et al., 2000). Infected cells were exposed to Zovirax/ACV (manufactured by Glaxo Wellcome, Chapel Hill, N.C.) or GCV (kindly provided by Syntex, Palo Alto, Calif.) added to the medium. Cells were irradiated in medium with a ^60Co γ irradiator (Picker Zonegard V4 M60; Picker Interational, Cleveland, Ohio) set at 1 Gy/minute. Cell viability was determined by the 3-(4,5-dimethylthiazol-2-yl)-2,5-[…] bromide (MTT) assay. (Contessa et al, 1999). Terminal deoxynucleotidyltransferase-mediated deoxyuridine triphosphate nick end labeling assays were carried out with an ApopTag Direct kit from Oncor (Gaithersburg, Md.), according to the manufacturer's instructions, to provide a measurement of apoptosis.
It was subsequently determined whether infection of RT2 cells with the adenovirus expressing mutant HSV-TK 75 was able to predispose RT2 cells to killing by GCV and ACV more efficiently than cells infected with virus expressing wild type HSV-TK. At 2 days postinfection, infected cells were exposed to increasing concentrations (1-100 microM) of either GCV or ACV. As a control, we used an adenovirus(AdCMV) carrying no transgene.

Row | Compound | cell killing, comparison of prodrugs (AdCMV-TK-infected RT2 cells) | effect of prodrug on cell growth/toxicity (MTT)
1 | Nc1nc(O)c2ncn(COC(CO)CO)c2n1 [GCV, ganciclovir] | more effective than with ACV | little to no effect
2 | Nc1nc2c(ncn2COCCO)c(=O)[nH]1 [ACV, acyclovir] |  | little to no effect
